# Data: US20250276996A1, “CATIONICALLY-ENFRAMED HIGH DENSITY AROMATIC PEPTIDES” (Research Foundation of the City University of New York, priority 2022, published 2025)
# “And” between values parts separate entries of the source, which are not always exact repeats. Identical values can stand only once. Non-standard residues stand in square brackets, D forms with d. Residues, ends and D or L forms follow the SMILES beside them. *: point of attachment. Biotin = O=C1N[C@H]2[C@H](CS[C@H]2CCCCC(=O)*)N1
# Key:
# MDBK cells [1] = assay: Cell survival in serum-free media (AlamarBlue); assay type: cell-based, bovine
# Description: Serum starvation experiments: Biotin-HDAP2's ability to improve cell viability and function following serum starvation was assessed. For all experiments, MDBK cells were seeded in 35 mm cell culture dishes (5×10^4 cells) in DMEM medium with 10% FBS (Fetal Bovine Serum) for 24 hrs and then incubated in serum-free medium with or without biotin-HDAP2 (1 μM) for 5 days to induce cell death. For quantitative measurements, wells were washed to remove dead cells, and then stained with AlamarBlue for 60 min. Quantitative analysis of dye conversion was measured using a fluorescent plate reader (550 ex/580 em) and cell viability was expressed as folds change (increase or decrease) over scrum-starved untreated cells.
# Effects of peptides on cell survival in serum-free media: Cell survival in serum starvation conditions was studied in the presence and absence of biotin-HDAP2 using MDBK cells. Cells were plated at a density of 1-2×10^5 cells/well in 96 well plates in DMEM/10% FBS media. The following day, cells were washed and the medium replaced with DMEM serum-free media in the presence or absence of different concentrations of biotin-HDAP2 and incubated for 5 days. Cell viability was assessed using the Resaruzin (Alamar blue) indicator dye. Quantitative analysis of dye conversion was measured using a fluorescent plate reader (ex/em=550/580 nm) and viability was expressed as fold increase over of untreated cells.
# MDBK cells [2] = assay: Mitochondrial membrane potential in serum-starved cells (MitoTracker Red); assay type: cell-based, bovine
# Description: MDBK cells incubated in serum free media for 5-7 days in the presence or absence of 1 μM of biotin-HDAP2. At the end of the incubation period 100 nM MitoTracker was added to the cells and incubated for 15 minutes. Then, media was removed and cells were fixed in 4% PFA. Cells were then visualized using a fluorescent microscope (Nikon Eclipse-ci-SRS). Experiments were conducted 5 times in triplicate for each experimental condition.
# To measure the effects of biotin-HDAP2 on the mitochondrial potential and cellular oxidative stress, cells were cultured in DMEM/F12 without fetal bovine serum (FSB) in the presence or absence of biotin-HDAP2 (1 μM). After 3 days, nuclei were labeled with Hoechst 33342 (10 μg/ml) and cells were incubated for 15 minutes at 37° C. with MTR (100 nM) to evaluate the strength of the mitochondrial potential or were incubated with the general oxidative stress indicator CM-H2DCFDA (5 μM, Invitrogen, Carlsbad, CA) for 15 min at 37° C. In each instance, cells were imaged immediately after staining and prior to fixation.
# Unless otherwise noted, data for all tissue culture experiments were collected from three independent trials, with each experiment done in triplicate. For each experiment, 4-6 fields of cells were randomly selected and imaged using a Nikon Eclipse 50i fluorescent microscope with a 40X immersion objective (NA 0.8) and using filters specific for either green or red wavelengths as appropriate (ex488 nm/ex515-540 nm). Photooxidation of the indicator dyes were minimized by using single exposures to the fluorescence for each field imaged. Fluorescence intensity was analyzed using ImageJ (NIH), and MTR and CM-H2DCFDA fluorescence were normalized to Hoechst fluorescence to account for differences in cell number in each field. Differences among groups were compared by Student's t-test and P values less than 0.05 were considered significant. All data are expressed as means±SEM.
# retina = assay: Biotin-HDAP2 uptake and distribution in retina; assay type: in vivo, mice
# Description: Biotin-HDAP2 (40 mg/kg) was administered intraperitoneally to mice (male or female) and 60 minutes later retina was collected, fixed and sectioned. […] (FIG. 7A and FIG. 7B).
# Biotin-HDAP2 uptake in retina: Adult animals were injected with 50 mg/kg biotin-HDAP2 (IP; GenScript, Piscataway, NJ) reconstituted in saline and observed for 2 hours before sacrifice. Eyes were marked to record their orientation, and the animals were given an overdose of ketamine (300 mg/kg)/xylazine (60 mg/kg) (IP) before removing each eye from the orbit with forceps. Whole eyes were dropped into 4% paraformaldehyde that was constituted in either 0.1M Tris or phosphate buffers (pH 7.3) and after ten minutes, the cornea, lens and vitreous body were removed to ensure better penetration of the fixative into the retina. The eyecups were returned to the fixative for one hour. Retinas for wholemounts were dissected from the pigment epithelium by cutting along the or a serrata, gently teasing the retina away from the back of the eye and then freeing the retina by severing the optic nerve. Retinas for cryo-sectioning remained in the eyecup, were cryoprotected in 0.1M Tris or phosphate-buffered sucrose (10%, 20% and 30%) prior to embedding in OCT (Polyfreeze, Polysciences) and sectioned at a thickness of 14 μm at −25° C. using a cryostat (Leica CM3050S).
# Immunohistochemistry: Fixed retinas were labeled with cell markers using conventional immunohistochemical protocols to identify cells and structures associated with biotin-HDAP2, and to identify retinal ganglion cells and starburst amacrine cells to assess cell survival following optic nerve crush. Retinas and sections were blocked and permeabilized with 4% normal donkey serum in 0.1M Tris or phosphate buffers with 0.5% Triton-X for 1 hour and then incubated overnight (for sections) or for 3 days (for wholemounts) at 4° C. in selected primary antibodies, and 2% normal donkey serum in the same buffer. […]
# [3] = tested on: antimycin-induced scratching; assay: Topical antimycin-induced scratching; assay type: in vivo, C57BL/6J mice; details: 100 μM topical with 200 μM antimycin, 60 min
# Description: However, antimycin-induced scratching in mice was […] by biotin-free HDAP2. Dermal administration of antimycin, a mitochondrial Complex III irreversible inhibitor, is known to induce ROS formation and oxidative stress in C fibers of sensory neurons, resulting in severe scratching in mice. Biotin-HDAP2 and biotin-free HDAP2 were tested to see if either can inhibit topical antimycin-induced itching in 12 months old C57BL/6J mice. […] Specifically, 200 μM of topical antimycin in methanol induced itching, which was monitored for 60 min. […] Error bars represent SEM (n=3) **P<0.001. Topical administration of 100 μM of biotin-free HDAP2 with antimycin increased scratching by 2.5 fold. Error bars represent SEM (n=3) ***P<0.0001.
smiles,measurement,setting,value
"N=C(N)NCCC[C@@H](NC(=O)[C@H](Cc1ccccc1)NC(=O)[C@H](Cc1ccccc1)NC(=O)[C@@H](CCCNC(=N)N)NC(=O)CCCC[C@@H]1SC[C@@H]2NC(=O)N[C@@H]21)C(N)=O [biotin-HDAP2, Biotin-dArg-Phe-Phe-dArg-NH2] (Biotin-[dR]FF[dR]-NH2)",AlamarBlue fluorescence / protection during serum starvation,"MDBK cells [1]; 1 μM, 5 days serum starvation",increased AlamarBlue fluorescence
same,increase in cell survival compared to untreated controls,"MDBK cells [1]; 1 μM, serum-free 5 days, AlamarBlue",50%
same,EC50,"MDBK cells [1]; serum-free, 5 days, AlamarBlue, read-out: EC50, cell survival in serum-free conditions",~0.1 µM and 0.1 µM
same,mitochondria membrane potential in starved cells,"MDBK cells [2]; 1 μM, serum free 5-7 days, 100 nM MitoTracker",improved mitochondria membrane potential in starved cells
same,increase of MitoTracker Red CMXRos fluorescence intensity vs untreated controls,"MDBK cells [2]; 1 μM, serum starvation",over 2.5 times
same,increase of mitochondrial membrane potential compared to serum-free control,"MDBK cells [2]; 1 μM, serum-free 3-4 days",150%
same,improvement of mitochondrial potential,MDBK cells [2]; FIG. 10D,2.5 fold
same,distribution in retina,"retina; 3 mg/kg, IP",labeled all layers of the retina
same,distribution in retina,"retina; 40 mg/kg intraperitoneally, 60 minutes",widely distributed throughout the retina
same,penetration of the retina-blood barrier,retina; intravitreal injection and systemic administration,can penetrate the retina-blood barrier
same,effect on antimycin-induced scratching,[3],inhibited scratching
